Assay results taken from ChEMBL document CHEMBL3137667, “[Drug-induced liver injury; fourteenth updated edition of the bibliographic database of liver injuries and related drugs]” (Gastroenterol Clin Biol, 2004).

Columns and labels:
[1] = human
[2] = Highest frequency of moderate liver toxicity observed during clinical trials, expressed as a percentage. [column '% BIOL' in source]; settings: human
[3] = human, serum
[4] = human, serum; remark: listed apart in the source
[5] = Proposed mechanism(s) of liver damage. [column 'MEC' in source]; settings: human
[6] = Highest frequency of acute liver toxicity observed during clinical trials, expressed as a percentage. [column '% AIGUE' in source]; settings: human
[7] = Presence of at least one case with successful reintroduction. [column 'REINT' in source]; settings: human
[8] = human; remark: listed apart in the source
[9] = human; remark: listed apart in the source
[10] = Comments (NB not yet translated). [column 'COMMENTAIRES' in source]; settings: human
[11] = human; remark: listed apart in the source
[12] = human; remark: listed apart in the source
[13] = human; remark: listed apart in the source
[14] = human, serum, 4383 h
[15] = Times to onset, minimal and maximal, observed in the indexed observations. [column 'DELAI' in source]; settings: human
[16] = human; remark: listed apart in the source
[17] = human; remark: listed apart in the source
[18] = human; remark: listed apart in the source
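For Hepatotoxicity (association with vascular disease) in this document: count of indexed literature references reporting vascular liver injury in humans, e.g. peliosis hepatitis, hepatic veno-occlusive disease or Budd-Chiari syndrome.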
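For Hepatotoxicity (benign tumour) in this document: value is a count of indexed literature references citing a benign tumour confirmed by histopathology.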
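For Hepatotoxicity (choleostasis) in this document: human cholestatic liver injury, shown by histopathology or by peak ALT or AST elevation over alkaline phosphatase ratio below 2, value counts indexed literature reports.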
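For Hepatotoxicity (chronic liver disease) in this document: chronic liver injury confirmed by histopathology or persistently raised serum aminotransferase activity beyond 6 months, value given as the count of indexed literature references.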
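For Hepatotoxicity (cirrhosis) in this document: value is a count of indexed literature references reporting cirrhosis confirmed by histopathology.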
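For Hepatotoxicity (cytolytic) in this document: human cytolytic liver injury, shown by histopathology or by a ratio above 5 of peak ALT or AST elevation to alkaline phosphatase elevation, value counts indexed references.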
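For Hepatotoxicity (granulomatous hepatitis) in this document: value is a count of indexed literature references reporting granulomatous liver disease confirmed by histopathology.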
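For Hepatotoxicity (malignant tumour) in this document: malignant tumour confirmed by histopathology, value gives the count of indexed literature references reporting it.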
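For Hepatotoxicity (severe hepatitis) in this document: human clinical data: severe hepatitis, meaning potentially life-threatening liver failure or clinically observed cases, the value counts how many indexed literature references report it.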
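For Hepatotoxicity (steatosis) in this document: steatosis confirmed by histopathology, value is the count of indexed references.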

Compound	Hepatotoxicity (steatosis) [1]	Hepatotoxicity (moderate) [2]	Hepatotoxicity (moderate) [3]	Hepatotoxicity (acute) [4]	Hepatotoxicity (mechanism) [5]	Hepatotoxicity (acute) [6]	Hepatotoxicity (successful reintroduction) [7]	Hepatotoxicity (granulomatous hepatitis) [8]	Hepatotoxicity (cytolytic) [9]	Hepatotoxicity (comment) [10]	Hepatotoxicity (malignant tumour) [11]	Hepatotoxicity (benign tumour) [12]	Hepatotoxicity (choleostasis) [13]	Hepatotoxicity (chronic liver disease) [14]	Hepatotoxicity (time to onset) [15]	Hepatotoxicity (association with vascular disease) [16]	Hepatotoxicity (cirrhosis) [17]	Hepatotoxicity (severe hepatitis) [18]
Cc1cn([C@H]2C=C[C@@H](CO)O2)c(=O)[nH]c1=O [STAVUDINE]	25	65.6%	13	29	Dose-dependant, Mitochondrial toxicity, Toxic	17.1%	yes	0	22	REACTIVATION_HVB/HVC	0	0	5	0	6 days - 5 years	0	0	14
O=C(O)c1cc(/N=N/c2ccc(S(=O)(=O)Nc3ccccn3)cc2)ccc1O [SULFASALAZINE]	1	26.7%	44	50	Allergic	5.7%	yes	11	31	DUCTOPENIE RC/COTRIMOXAZOLE/MESALAZINE/OLSALAZINE	0	0	14	2	1 day - 1 year	0	0	11
c1ccc2[nH]c(-c3cscn3)nc2c1 [THIABENDAZOLE]	0	36%	2	13	Allergic	0%	yes	0	2	CHOLESTASE_PROLONGEE DUCTOPENIE #CBP	0	0	13	0	2 weeks - 1.5 years	0	2	0
O=C(O)c1cccs1 [THIOPHENE CARBOXYLIC ACID]	0	0%	0	3	Allergic	0%	yes	0	3	AC_ANTI-ML	0	0	0	0	3 days - 3 weeks	0	0	0
CCOC(=O)NNc1nncc2ccccc12 [TODRALAZINE]	0	0%	0	3	Allergic	0%	yes	0	3	AC_ANTI-N/-MF	0	0	0	0	11 days - 2 years	0	0	2
Cc1ccc(-c2nc3ccc(C)cn3c2CC(=O)N(C)C)cc1 [ZOLPIDEM]	0	0.4%	3	2	Dose-dependant	0%	yes	0	2	ENCEPHALOPATHIE	0	0	0	0	1 day - 3 days	0	0	0
INTERFERON ALFA-2A	0	92%	50	10	Allergic, Dose-dependant	35.7%	yes	0	7	AC_ANTI-ML/-N AGGRAVATION_HAI/HVB I/PARACETAMOL CBP	0	0	2	0	1 week - 9 months	0	1	2
INTERFERON ALFA-2B	0	87.5%	52	13	Dose-dependant	0%	yes	3	8	AGGRAVATION_CBP/HEPATITE_AUTOIMMUNE/HVB/HVC_CHRONIQUE CHOLANGITE	0	0	2	0	1 week - 1 year	0	0	7
INTERFERON BETA	0	100%	33	10	Allergic, Dose-dependant	31.2%	yes	0	5	AC_ANTI-N/-ML	0	0	0	0	3 days - 2 years	0	0	1
